Reference: PMC10999543, “Identification of kinase modulators as host-directed therapeutics against intracellular methicillin-resistant Staphylococcus aureus” (Frontiers in Cellular and Infection Microbiology, 2024)
Like-named read-outs stand apart in the source and are kept apart here.

Experiments:
[1] = test system: intracellular MRSA; format: cell-based, Staphylococcus aureus; details: for %GFP+ rep 1 / z-scoreMRSA+ rep 1: replicate 1; for %GFP+ rep 2 / z-scoreMRSA+ rep 2: replicate 2; for %GFP+ rep 3 / z-scoreMRSA+ rep 3: replicate 3; for z-scoreMRSA+ mean: mean of 3 replicates
Protocol: (§1) The cells were resuspended in cell culture medium without antibiotics, seeded with 10,000 cells/well into Costar flat-bottom 96-well plates (Corning, Amsterdam, the Netherlands), and were incubated overnight at 37°C/5% CO2. The next day, the bacteria were centrifuged at ≥1800 g for 15 min and resuspended in cold PBS + 5 mM ethylenediaminetetraacetic acid (EDTA). The number of CFUs present in the bacterial suspension was estimated from the optical density at 600 nm (OD600) by assuming 8x10^8 CFUs to be present in a bacterial suspension with OD600 = 1, based on prior titrations. The bacterial suspension was diluted in cell culture medium without antibiotics and added to the cells. Accuracy of the multiplicity of infection (MOI) was validated by plating serial dilutions of the MRSA inoculums on Difco TS agar plates (BD Biosciences). The calculated mean MOI throughout all experiments was 6.8 ± 4.6 (mean ± SD). Infected cells were centrifuged for 3 min at 150 g and incubated for 1 hour at 37°C/5% CO2. Next, the cells were incubated with fresh cell culture medium supplemented with 30 µg/ml gentamicin sulphate (Lonza BioWhittaker, Basel, Switzerland) for 15 min at 37°C/5% CO2 to kill residual extracellular bacteria. Infected cells were incubated overnight at 37°C/5% CO2 in cell culture medium in the presence of kinase inhibitors and 5 µg/ml gentamicin sulphate-containing medium to prevent the growth of extracellular bacteria. The solvent of the compounds, DMSO, was used at equal % v/v as a negative control. For the screen, each compound was tested in triplicate, on separate cell culture plates, resulting in triplicate values for each kinase inhibitor.
(§2) HeLa cells were harvested by trypsinization and fixed with 1% paraformaldehyde. Samples were measured on a FACSLyric with HTS extension (BD Biosciences). Flow cytometry data were analysed using FlowJo version 10 (TreeStar, Ashland, OR, USA). HeLa cells positive for GFP were gated to calculate the percentage of MRSA-infected cells. The cell count was used as surrogate readout of cell viability.
To identify potential “hit” compounds, the flow cytometry data were used to calculate standard z-scores using z = (x-μ)/σ – zneg, where x is total event count or the percent of GFP-positive cells from a single well, μ is the mean from wells of the plate, σ is the standard deviation of the plate and zneg is the mean z-score of the negative control of the plate (i.e., DMSO) ([Korbee et al., 2018]). To minimize the possibility that the presence of extreme values on a plate affected the z-scores, raw values that deviated two-fold from the negative controls were excluded when calculating plate means and standard deviations as used in the aforementioned formula. Compounds were considered a “hit” when z-scoreMRSA+ ≤ -2 and z-scoreHeLa ≥ -3 for cell count. In cases where compounds were screened twice, the average values were used to select hit compounds.

[2] = test system: HeLa cells; test: Compound screen by flow cytometry: HeLa cell count as surrogate readout of cell viability (z-scoreHeLa); format: cell-based, human
Protocol: as §1, §2
To minimize the possibility that the presence of extreme values on a plate affected the z-scores, raw values that deviated two-fold from the negative controls were excluded when calculating plate means and standard deviations as used in the aforementioned formula. Compounds were considered a “hit” when z-scoreMRSA+ ≤ -2 and z-scoreHeLa ≥ -3 for cell count. In cases where compounds were screened twice, the average values were used to select hit compounds.

[3] = PKIS compound screen raw data, MRSA-infected HeLa cells
[4] = Yes/No: effect without cell death
[5] = compound screen, MRSA-infected HeLa cells
[6] = PKIS compound screen raw data, HeLa cell count, replicate 1
[7] = PKIS compound screen raw data, HeLa cell count, replicate 2
[8] = PKIS compound screen raw data, HeLa cell count, replicate 3
[9] = compound screen, HeLa cell count, mean of 3 replicates
[10] = compound screen, HeLa cell count, replicate 1
[11] = compound screen, HeLa cell count, replicate 2
[12] = compound screen, HeLa cell count, replicate 3
[13] = PKIS compound screen, Yes/No call
[14] = PKIS compound screen, Yes/No call (effect without cell death)
[15] = PKIS compounds raw data, MRSA-infected HeLa cells
[16] = PKIS compound screen, MRSA-infected HeLa cells

COc1ccc(Nc2nccc(NCCNC(=O)Nc3ccccc3F)n2)cc1 [GSK1379901A]
%GFP+ rep 1 [1, 3]: 25.4%
%GFP+ rep 2 [1, 3]: 21.0%
%GFP+ rep 3 [1, 3]: 21.4%
effect ([1]; Yes/No call from z-scoreMRSA+): No
hit [1, 4]: No
z-scoreMRSA+ mean [1, 5]: -0.20
z-scoreMRSA+ rep 1 [1, 5]: 0.03
z-scoreMRSA+ rep 2 [1, 5]: -0.39
z-scoreMRSA+ rep 3 [1, 5]: -0.24
cell count rep 1 [2, 6]: 4960
cell count rep 2 [2, 7]: 3999
cell count rep 3 [2, 8]: 4730
cell death ([2]; Yes/No call from z-scoreHeLa): No
z-scoreHeLa mean [2, 9]: -0.04
z-scoreHeLa rep 1 [2, 10]: 0.44
z-scoreHeLa rep 2 [2, 11]: -0.23
z-scoreHeLa rep 3 [2, 12]: -0.32

SB-675259-M
effect [1, 13]: No
hit [1, 14]: No
z-scoreMRSA+ mean ([1]; PKIS compound screen): -0.33
z-scoreMRSA+ rep 1 ([1]; PKIS compound screen): -0.0227
z-scoreMRSA+ rep 2 ([1]; PKIS compound screen): 0.37
z-scoreMRSA+ rep 3 ([1]; PKIS compound screen): -1.33
%GFP+ rep 1 [1, 15]: 13.1%
%GFP+ rep 2 [1, 15]: 14.6%
%GFP+ rep 3 [1, 15]: 11.4%
cell count rep 1 [2]: 2153
cell count rep 2 [2]: 1700
cell count rep 3 [2]: 5596
cell death [2]: No
z-scoreHeLa mean [2]: -1.66
z-scoreHeLa rep 1 [2]: -2.37
z-scoreHeLa rep 2 [2]: -1.94
z-scoreHeLa rep 3 [2]: -0.65

COc1cccc(CC(=O)N2CCc3cc(-c4cn(C)c5ncnc(N)c45)ccc32)c1 [GSK2608899A]
%GFP+ rep 1 [1, 3]: 26.6%
%GFP+ rep 2 [1, 3]: 25.5%
%GFP+ rep 3 [1, 3]: 23.7%
effect ([1]; Yes/No call from z-scoreMRSA+): No
hit [1, 4]: No
z-scoreMRSA+ mean [1, 5]: 0.49
z-scoreMRSA+ rep 1 [1, 5]: 0.31
z-scoreMRSA+ rep 2 [1, 5]: 0.70
z-scoreMRSA+ rep 3 [1, 5]: 0.45
cell count rep 1 [2, 6]: 3096
cell count rep 2 [2, 7]: 2695
cell count rep 3 [2, 8]: 3225
cell death ([2]; Yes/No call from z-scoreHeLa): No
z-scoreHeLa mean [2, 9]: -1.14
z-scoreHeLa rep 1 [2, 10]: -0.91
z-scoreHeLa rep 2 [2, 11]: -1.24
z-scoreHeLa rep 3 [2, 12]: -1.27

COc1cc(/C=N/Nc2ncnc3[nH]ncc23)ccc1O [GW578748X]
effect [1, 13]: No
hit [1, 14]: No
z-scoreMRSA+ mean ([1]; PKIS compound screen): -1.18
z-scoreMRSA+ rep 1 ([1]; PKIS compound screen): -0.92
z-scoreMRSA+ rep 2 ([1]; PKIS compound screen): -1.14
z-scoreMRSA+ rep 3 ([1]; PKIS compound screen): -1.48
%GFP+ rep 1 [1, 15]: 10.3%
%GFP+ rep 2 [1, 15]: 10.1%
%GFP+ rep 3 [1, 15]: 10.9%
cell death [2, 13]: No
z-scoreHeLa mean ([2]; PKIS compound screen, mean of 3 replicates): 0.25
z-scoreHeLa rep 1 ([2]; PKIS compound screen, replicate 1): -0.52
z-scoreHeLa rep 2 ([2]; PKIS compound screen, replicate 2): 1.00
z-scoreHeLa rep 3 ([2]; PKIS compound screen, replicate 3): 0.26
cell count rep 1 ([2]; PKIS compounds raw data, replicate 1, HeLa cell count): 4206
cell count rep 2 ([2]; PKIS compounds raw data, replicate 2, HeLa cell count): 5592
cell count rep 3 ([2]; PKIS compounds raw data, replicate 3, HeLa cell count): 7495

OCCCNc1nccc(-c2c(-c3ccc(F)cc3)nn3cc(C(F)(F)F)ccc23)n1 [GW569293E]
%GFP+ rep 1 [1, 3]: 17.0%
%GFP+ rep 2 [1, 3]: 16.9%
%GFP+ rep 3 [1, 3]: 19.3%
z-scoreMRSA+ mean [1, 16]: -0.30
z-scoreMRSA+ rep 1 [1, 16]: -0.27
z-scoreMRSA+ rep 2 [1, 16]: -0.49
z-scoreMRSA+ rep 3 [1, 16]: -0.15
hit [1, 14]: No
effect ([1]; PKIS compound screen, Yes/No call on z-scoreMRSA+): No
cell count rep 1 [2, 6]: 13158
cell count rep 2 [2, 7]: 40183
cell count rep 3 [2, 8]: 38241
z-scoreHeLa mean ([2]; PKIS compound screen, HeLa cell count, mean of 3 replicates): -0.14
z-scoreHeLa rep 1 ([2]; PKIS compound screen, HeLa cell count, replicate 1): -1.06
z-scoreHeLa rep 2 ([2]; PKIS compound screen, HeLa cell count, replicate 2): 1.01
z-scoreHeLa rep 3 ([2]; PKIS compound screen, HeLa cell count, replicate 3): -0.36
cell death ([2]; PKIS compound screen, Yes/No call on z-scoreHeLa): No
